Laboratory results taken from patent US4874751A, “Antibacterial treatment” (priority 1985, dated 1989).

Q: With `Cc1cn([C@H]2C[C@H](N=[N+]=[N-])[C@@H](CO)O2)c(=O)[nH]c1=O` as the compound, how does the LD50 (LD50 in rats) read?
A: greater than 750 mg/kg

Q: And the LD50 (LD50 in mice)?
A: greater than 750 mg/kg
